Test results reported in article PMC9931771, “Surufatinib plus toripalimab in patients with advanced solid tumors: a single-arm, open-label, phase 1 trial” (Journal of Cancer Research and Clinical Oncology, 2022).
Read-outs that look alike come from different tables or passages of the source.

Assays:
[1] = test system: advanced well-differentiated extrapancreatic NET; parameters: method as in Xu et al. [2020a], [b]; details: phase 3 trial, ref Xu et al. [2020a], [b]; cited from earlier work
[2] = test system: advanced well-differentiated pancreatic NET; parameters: method as in Xu et al. [2020a], [b]; details: phase 3 trial, ref Xu et al. [2020a], [b]; cited from earlier work
[3] = Phase 1 trial: pharmacokinetics of surufatinib and toripalimab (non-compartmental analysis); type: in vivo, human; details: for Surufatinib accumulation ratio of AUC0-τ: Cycle 2 Day 1 compared to Cycle 1 Day 1; for AUC / Cmax / Tmax / Vd/F / half-life: human, in vivo, oral; for AUC: read-out: Surufatinib AUC0-τ, geometric mean (CV%); for Cmax: read-out: Surufatinib Cmax, geometric mean (CV%); for Tmax: read-out: Surufatinib Tmax, median; for Vd/F: read-out: Surufatinib Vd/F, geometric mean (CV%); for half-life: read-out: Surufatinib t1/2, median (converted)
Description: Blood samples were collected for PK evaluation at multiple time points on Cycle 1 Day 1, Cycle 2 Day 1, and Cycle 3 Day 1 for surufatinib and toripalimab, respectively.
DLT events were based on the DLT evaluable population, including patients who received at least 1 cycle of treatment and completed all safety assessments within the DLT assessment window or discontinued early due to DLT in the dose-escalation stage. All safety analyses, progression-free survival (PFS), and overall survival (OS) statistics were based on the safety population, including patients who received at least 1 dose of any study drug. All efficacy endpoints, excluding PFS and OS, were analyzed based on the efficacy evaluable population, including all patients who received at least 1 dose of any study drug and had tumor assessment at baseline and post drug administration prior to initiation of new anti-cancer therapies. The PK analysis was based on the PK population, which included all patients who received at least one dose of the study drug, had at least one PK sample collected and analyzed, and had no protocol deviation that might affect the PK data.
Two-sided 95% confidence interval (CI) of ORR and DCR were computed using the Exact (Clopper–Pearson) method. For time-to-event variables [PFS, OS, DoR (duration of response) and TTR (time to response)], median event time as well as the corresponding 95% CI were estimated using Kaplan–Meier method. All statistical analyses were performed using SAS 9.4 software. Adverse events (AEs) were graded by NCI CTCAE (Common Terminology Criteria for Adverse Events) v4.03, and coded using the Medical Dictionary for Regulatory Activities (MedDRA) v23.1. Treatment-related AEs (TRAEs) referred to AEs related to surufatinib or toripalimab, which were judged by the investigators. PK parameters were calculated by non-compartmental analysis using Phoenix WinNonlin v8.0.

[4] = test system: tumor-associated macrophages (TAMs); parameters: method as in Zhou et al. [2017]; details: preclinical studies; ref Zhou et al. [2017]; cited from earlier work
[5] = surufatinib 200 mg + toripalimab 240 mg, C1D1, N 6
[6] = surufatinib 200 mg + toripalimab 240 mg, C1D1, footnote 1 (N 4)
[7] = surufatinib 200 mg + toripalimab 240 mg, C2D1, N 6
[8] = surufatinib 200 mg + toripalimab 240 mg, C3D1, N 3
[9] = surufatinib 200 mg + toripalimab 240 mg, C3D1, footnote 3 (N 2)
[10] = surufatinib 250 mg + toripalimab 240 mg, C1D1, N 12
[11] = surufatinib 250 mg + toripalimab 240 mg, C2D1, N 11
[12] = surufatinib 250 mg + toripalimab 240 mg, C3D1, N 9
[13] = surufatinib 250 mg + toripalimab 240 mg, C3D1, footnote 3 (N 8)
[14] = surufatinib 300 mg + toripalimab 240 mg, C1D1, N 12
[15] = surufatinib 300 mg + toripalimab 240 mg, C1D1, footnote 1 (N 10)
[16] = surufatinib 300 mg + toripalimab 240 mg, C2D1, N 10
[17] = surufatinib 300 mg + toripalimab 240 mg, C3D1, N 10

Surufatinib accumulation ratio of AUC0-τ ([3]; 200 mg QD): 1.8
Surufatinib accumulation ratio of AUC0-τ ([3]; 250 mg QD): 2.0
Surufatinib accumulation ratio of AUC0-τ ([3]; 300 mg QD): 2.1
AUC ([3]; surufatinib 200 mg + toripalimab 240 mg, C1D1, N 4): 1840 ng·h/mL
Cmax [3, 5]: 277 ng/mL
Tmax [3, 5]: 1.98 h
Vd/F [3, 6]: 926 L
half-life [3, 6]: 4.49 h
AUC ([3]; surufatinib 200 mg + toripalimab 240 mg, C2D1, N 3): 3010 ng·h/mL
Cmax [3, 7]: 268 ng/mL
Tmax [3, 7]: 2.97 h
half-life ([3]; surufatinib 200 mg + toripalimab 240 mg, C2D1, footnote 4 (N 3)): 13.1 h
AUC ([3]; surufatinib 200 mg + toripalimab 240 mg, C3D1, N 2): 2300 ng·h/mL
Cmax [3, 8]: 239 ng/mL
Tmax [3, 8]: 1.98 h
Vd/F [3, 9]: 1080 L
half-life [3, 9]: 10.1 h
AUC [3, 10]: 1840 ng·h/mL
Cmax [3, 10]: 289 ng/mL
Tmax [3, 10]: 1.6 h
Vd/F [3, 10]: 1660 L
half-life [3, 10]: 11.1 h
AUC [3, 11]: 3610 ng·h/mL
Cmax [3, 11]: 407 ng/mL
Tmax [3, 11]: 2 h
half-life [3, 11]: 11.9 h
AUC ([3]; surufatinib 250 mg + toripalimab 240 mg, C3D1, N 8): 2400 ng·h/mL
Cmax [3, 12]: 310 ng/mL
Tmax [3, 12]: 1.93 h
Vd/F [3, 13]: 2540 L
half-life [3, 13]: 15.6 h
AUC ([3]; surufatinib 300 mg + toripalimab 240 mg, C1D1, N 10): 1880 ng·h/mL
Cmax [3, 14]: 228 ng/mL
Tmax [3, 14]: 2 h
Vd/F [3, 15]: 1620 L
half-life [3, 15]: 8.12 h
AUC ([3]; surufatinib 300 mg + toripalimab 240 mg, C2D1, N 9): 3670 ng·h/mL
Cmax [3, 16]: 281 ng/mL
Tmax [3, 16]: 2.97 h
half-life ([3]; surufatinib 300 mg + toripalimab 240 mg, C2D1, footnote 4 (N 8)): 14.4 h
AUC [3, 17]: 3500 ng·h/mL
Cmax [3, 17]: 361 ng/mL
Tmax [3, 17]: 2 h
Vd/F [3, 17]: 1510 L
half-life [3, 17]: 12.2 h
Surufatinib CL/F, geometric mean (CV%) [3, 6]: 89.5 (23.9) ^1 L/h
Surufatinib CL/F, geometric mean (CV%) [3, 9]: 87.0 (24.3) ^3 L/h
Surufatinib CL/F, geometric mean (CV%) [3, 10]: 110 (34.6) L/h
Surufatinib CL/F, geometric mean (CV%) [3, 13]: 104 (45.0)^3 L/h
Surufatinib CL/F, geometric mean (CV%) [3, 15]: 134 (30.7) ^1 L/h
Surufatinib CL/F, geometric mean (CV%) [3, 17]: 84.3 (34.9) L/h
SMILES: Cc1cc2cc(Oc3ccnc(Nc4cccc(CS(=O)(=O)NCCN(C)C)c4)n3)ccc2[nH]1 [surufatinib]
DCR [1]: 86.5%
ORR [1]: 10.3%
DCR [2]: 80.8%
ORR [2]: 19.2%
Effect on M1 TAMs [4]: increased
Effect on M2 tumor-associated macrophages (TAMs) [4]: decreased
